Results: patent US11072607B2, “Inhibitors of RIP1 kinase and methods of use thereof” (priority 2016, dated 2021)
Where two headings read alike, the source gives them in different places.

Target: human RIP1 kinase domain (2-375) (Homo sapiens (Human), UniProt Q13546)
Test: RIP1 kinase inhibition assay (biochemical, Transcreener ADP assay)
Conditions: tight-binding apparent inhibition constant (Ki app, Morrison equation), 50 nM enzyme, 50 uM ATP, 2 hours incubation, fluorescence polarization
Description: Example 45: RIP1 Kinase Inhibition Assays (Biochemical Assay)
The compounds of the present invention were tested for their capacity to inhibit RIP1K activity as described below.
The ability of the receptor interacting protein kinase (RIPK1) to catalyze the hydrolysis of adenosine-5′-triphosphate (ATP) is monitored using the Transcreener ADP (adenosine-5′-diphosphate) assay (BellBrook Labs). Purified human RIP1 kinase domain (2-375) (50 nM) derived from a baculovirus-infected insect cell expression system is incubated with test compounds for 2 hours in 50 mM Hepes buffer (pH 7.5) containing 30 mM MgCl2, 1 mM dithiothreitol, 50 uM ATP, 0.002% Brij-35, and 0.5% dimethyl sulfoxide (DMSO). Reactions are quenched by the addition of 1× Bell Brooks Stop buffer B (20 mM Hepes (ph 7.5), 40 mM ethylenediaminetetraacetic acid and 0.02% Brij-35) containing an additional 12 mM EDTA and 55 ug/mL ADP2 antibody and 4 nM ADP-AlexaFluor® 633 tracer. The tracer bound to the antibody is displaced by the ADP generated during the RIP1K reaction, which causes a decrease in fluorescence polarization that is measured by laser excitation at 633 nm with a FP microplate reader M1000. Fractional activity was plotted against test article concentration. Using Genedata Screener software (Genedata; Basel, Switzerland), the data were fit to the tight-binding apparent inhibition constant (Ki^app) Morrison equation [Williams, J. W. and Morrison, J. F. (1979) The kinetics of reversible tight-binding inhibition. Methods Enzymol 63: 437-67]. The following equation was used to calculate fractional activity and Ki^app: […]
where [E]T and [I]T are the total concentrations of active enzyme and test article, respectively. […]

Sequence of human RIP1 kinase domain (2-375) (Q13546 2-375): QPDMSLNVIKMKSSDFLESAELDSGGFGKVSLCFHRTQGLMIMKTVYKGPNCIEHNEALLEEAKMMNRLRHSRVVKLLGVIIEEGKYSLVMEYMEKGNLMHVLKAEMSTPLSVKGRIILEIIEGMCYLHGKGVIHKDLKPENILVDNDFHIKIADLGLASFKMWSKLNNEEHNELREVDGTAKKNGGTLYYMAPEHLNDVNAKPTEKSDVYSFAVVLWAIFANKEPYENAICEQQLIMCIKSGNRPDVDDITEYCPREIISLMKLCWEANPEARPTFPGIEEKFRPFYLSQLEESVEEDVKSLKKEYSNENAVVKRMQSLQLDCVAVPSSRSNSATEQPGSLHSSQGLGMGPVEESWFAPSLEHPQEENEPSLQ

SMILES	Ki (RIP1 Ki)	Ki (read-out: RIP1 Ki)
CN1C(=O)[C@@H](NC(=O)c2nc3n(n2)[C@H](c2ccccc2)C[C@@H]3F)CCn2nccc21 (mixture of isomers) [Example #29, Rac-(5S,7S)-7-fluoro-5-phenyl-N-[(6S)-4-methyl-5-oxo-7,8-dihydro-6H-pyrazolo[1,5-a][1,3]diazepin-6-yl]-6,7-dihydro-5H-pyrrolo[1,2-b][1,2,4]triazole-2-carboxamide]	43 nM	
O=C(N[C@H]1CCc2cc(F)cc(F)c2NC1=O)c1nc2n(n1)[C@@H](c1ccccc1)C[C@@H]2F (mixture of isomers) [Example #31, Rac-(5R,7S)-7-fluoro-5-phenyl-N-[(3S)-7,9-difluoro-2-oxo-1,3,4,5-tetrahydro-1-benzazepin-3-yl]-6,7-dihydro-5H-pyrrolo[1,2-b][1,2,4]triazole-2-carboxamide]	15 nM	
CN1C(=O)[C@@H](NC(=O)c2nc3n(n2)[C@@H](c2ccccc2)C[C@@H]3F)COc2ccccc21 (mixture of isomers) [Example #32, rac-(5R,7S)-7-fluoro-5-phenyl-N-[(3S)-5-methyl-4-oxo-2,3-dihydro-1,5-benzoxazepin-3-yl]-6,7-dihydro-5H-pyrrolo[1,2-b][1,2,4]triazole-2-carboxamide]	14 nM	
CN1C(=O)[C@@H](NC(=O)c2nc3n(n2)[C@H](c2ccccc2)C[C@@H]3F)CCn2nccc21 (racemic) [Example #38, rac-(5S,7S)-7-fluoro-5-phenyl-N-[rac-(6S)-4-methyl-5-oxo-7,8-dihydro-6H-pyrazolo[1,5-a][1,3]diazepin-6-yl]-6,7-dihydro-5H-pyrrolo[1,2-b][1,2,4]triazole-2-carboxamide]	24 nM	
Cc1cc2n(n1)CC[C@H](NC(=O)c1nc3n(n1)[C@H](c1ccccc1)C[C@@H]3F)C(=O)N2C (racemic) [Example #39, rac-(5S,7S)-7-fluoro-5-phenyl-N-[rac-(6S)-2,4-dimethyl-5-oxo-7,8-dihydro-6H-pyrazolo[1,5-a][1,3]diazepin-6-yl]-6,7-dihydro-5H-pyrrolo[1,2-b][1,2,4]triazole-2-carboxamide]	27 nM	
Cc1cc2n(n1)CC[C@H](NC(=O)c1nc3n(n1)[C@@H](c1ccccc1)CC3(F)F)C(=O)N2C (racemic) [Example #41, rac-(5R)-7,7-difluoro-5-phenyl-N-[rac-(6S)-2,4-dimethyl-5-oxo-7,8-dihydro-6H-pyrazolo[1,5-a][1,3]diazepin-6-yl]-5,6-dihydropyrrolo[1,2-b][1,2,4]triazole-2-carboxamide]	35 nM	
CN1C(=O)[C@@H](NC(=O)c2nc3n(n2)[C@@H](c2ccccc2)CC3(F)F)COc2ccccc21 (racemic) [Example #42, rac-(5R)-7,7-difluoro-5-phenyl-N-[rac-(3S)-5-methyl-4-oxo-2,3-dihydro-1,5-benzoxazepin-3-yl]-5,6-dihydropyrrolo[1,2-b][1,2,4]triazole-2-carboxamide]	5 nM	
CN1C(=O)[C@@H](NC(=O)c2nc3n(n2)[C@@H](c2ccccc2)CC3(F)F)CCn2nccc21 (racemic) [Example #43, rac-(5R)-7,7-difluoro-5-phenyl-N-[rac-(6S)-4-methyl-5-oxo-7,8-dihydro-6H-pyrazolo[1,5-a][1,3]diazepin-6-yl]-5,6-dihydropyrrolo[1,2-b][1,2,4]triazole-2-carboxamide]	28 nM	
CN1C(=O)[C@@H](NC(=O)c2nc3n(n2)CC[C@H]3c2ccccc2F)CCn2nccc21 (single isomer, unassigned) [Example #7]		22 nM
Cc1cc2n(n1)CC[C@H](NC(=O)c1nc3n(n1)CC[C@H]3c1ccccc1F)C(=O)N2C (single isomer, unassigned) [Example #8]		18 nM
COc1cc2c(cn1)N(C)C(=O)[C@@H](NC(=O)c1nc3n(n1)[C@H](c1ccccc1F)CC3)CC2 (single isomer, unassigned) [Example #11]		11 nM
O=C(N[C@H]1CCc2ncccc2NC1=O)c1nc2n(n1)[C@@H](c1ccccc1)CC2 (single isomer, unassigned) [Example #13]		41 nM
O=C(N[C@H]1CCc2ncccc2NC1=O)c1nc2n(n1)[C@H](c1ccccc1F)CC2 (single isomer, unassigned) [Example #14]		19 nM
CN1C(=O)[C@@H](NC(=O)c2nc3n(n2)CC[C@H]3c2ccccc2F)CCc2ncccc21 (single isomer, unassigned) [Example #15]		42 nM
CN1C(=O)[C@@H](NC(=O)c2nc3n(n2)[C@@H](c2ccccc2F)CC3)CCc2ncccc21 (single isomer, unassigned) [Example #16]		29 nM
CN1C(=O)[C@@H](NC(=O)c2nc3n(n2)CC[C@H]3c2ccccc2)CCc2ncccc21 (single isomer, unassigned) [Example #17]		37 nM
CN1C(=O)[C@@H](NC(=O)c2nc3n(n2)[C@H](c2ccccc2)CC3)CCc2ncccc21 (single isomer, unassigned) [Example #18]		44 nM

SMILES	Ki (RIP1 Ki)	Ki (read-out: RIP1 Ki)
CN1C(=O)[C@@H](NC(=O)c2ncn(Cc3ccccc3)n2)CCc2nn(C)cc21 (single isomer, unassigned) [Example #20]		46 nM
CN1C(=O)[C@@H](NC(=O)c2ncn(Cc3ccccc3F)n2)CCc2nn(C)cc21 (single isomer, unassigned) [Example #21]		26 nM
CN1C(=O)[C@@H](NC(=O)c2ncn(Cc3ccccc3)n2)CCc2c1cnn2C (single isomer, unassigned) [Example #22]		14 nM
CN1C(=O)[C@@H](NC(=O)c2ncn(Cc3ccccc3F)n2)CCc2c1cnn2C (single isomer, unassigned) [Example #23]		13 nM
CN1C(=O)[C@@H](NC(=O)c2nc3n(n2)[C@H](c2ccccc2)C[C@@H]3F)COc2ccccc21 (single isomer, unassigned) [Example #30]	18 nM	
O=C(N[C@H]1CCc2cc(F)cc(F)c2NC1=O)c1nc2n(n1)[C@@H](c1ccccc1)C[C@H]2F (single isomer, unassigned) [Example #33]		13 nM
O=C(N[C@H]1CCc2cc(F)cc(F)c2NC1=O)c1nc2n(n1)[C@H](c1ccccc1)C[C@H]2F (single isomer, unassigned) [Example #34]		31 nM
CN1C(=O)[C@@H](NC(=O)c2nc3n(n2)[C@H](c2ccccc2)C[C@H]3F)COc2ccccc21 (single isomer, unassigned) [Example #35]		15 nM
CN1C(=O)[C@@H](NC(=O)c2nc3n(n2)[C@@H](c2ccccc2)C[C@@H]3F)CCn2nccc21 (single isomer, unassigned) [Example #36]		32 nM
Cc1cc2n(n1)CC[C@H](NC(=O)c1nc3n(n1)[C@@H](c1ccccc1)C[C@@H]3F)C(=O)N2C (single isomer, unassigned) [Example #37]		30 nM
CN1C(=O)[C@@H](NC(=O)c2nc3n(n2)[C@H](c2ccccc2)C[C@@H]3F)COc2ccccc21 (single isomer, unassigned) [Example #40]	5 nM	
CCC(F)(F)[C@@H]1CCc2nc(C(=O)N[C@H]3COc4ccccc4N(C)C3=O)nn21 (single isomer, unassigned) [Example #44]		7 nM
CN1C(=O)[C@@H](NC(=O)c2cc3c(cn2)cnn3CC(C)(F)F)COc2ccccc21 [Example #2, 1-(2,2-difluoropropyl)-N-[(3S)-5-methyl-4-oxo-2,3-dihydro-1,5-benzoxazepin-3-yl]pyrazolo[4,3-c]pyridine-6-carboxamide]		29 nM
CN1C(=O)[C@@H](NC(=O)c2ncc3cnn(CC(C)(F)F)c3n2)COc2ccccc21 [Example #3, 1-(2,2-difluoropropyl)-N-[(3S)-5-methyl-4-oxo-2,3-dihydro-1,5-benzoxazepin-3-yl]pyrazolo[3,4-d]pyrimidine-6-carboxamide]		35 nM
CN1C(=O)[C@@H](NC(=O)c2ncc3cnn(C4CC4)c3n2)COc2ccccc21 [Example #4, 1-cyclopropyl-N-[(3S)-5-methyl-4-oxo-2,3-dihydro-1,5-benzoxazepin-3-yl]pyrazolo[3,4-d]pyrimidine-6-carboxamide]		22 nM
O=C(N[C@H]1CCc2cc(F)cc(F)c2NC1=O)c1cc2n(n1)CCOC2c1ccccc1 (stereo partly drawn) [Example #5, 4-phenyl-N-[(3S)-7,9-difluoro-2-oxo-1,3,4,5-tetrahydro-1-benzazepin-3-yl]-6,7-dihydro-4H-pyrazolo[5,1-c][1,4]oxazine-2-carboxamide]		11 nM
CN1C(=O)[C@@H](NC(=O)c2ncn(Cc3ccccc3)n2)CCn2nc(CC3CCOC3)cc21 (stereo partly drawn) [Example #19, 1-benzyl-N-[(6S)-4-methyl-5-oxo-2-(tetrahydrofuran-3-ylmethyl)-7,8-dihydro-6H-pyrazolo[1,5-a][1,3]diazepin-6-yl]-1,2,4-triazole-3-carboxamide]		16 nM
